Test results taken from ChEMBL document CHEMBL3864156, “Inhibition of plasma lipid oxidation induced by peroxyl radicals, peroxynitrite, hypochlorite, 15-lipoxygenase, and singlet oxygen by clinical drugs” (Bioorg Med Chem Lett, 2016).
Activity calls are given as the source filed them. The rule behind the calls is not given here.

Assays:
[1] = Antioxidant activity assessed as inhibition of Meo-AMVN-derived peroxyl radicals-induced fucoxanthin consumption at 50 uM; format: functional
Mus musculus [2] = species: Mus musculus; assay: Antioxidant activity in 10% C57BL/6J mouse plasma assessed as inhibition of AAPH-derived peroxyl radicals-induced pyranine consumption at 50 uM; format: functional, cell-free
Mus musculus [3] = species: Mus musculus; assay: Antioxidant activity in 10% C57BL/6J mouse plasma assessed as inhibition of NaOCl-induced lipid oxidation at 30 uM by DPPP-based fluorescence assay; format: functional, cell-free
[4] = 1-octanol-water partition coefficient, log P of the compound; format: physicochemical
[5] = Plasma concentration in paediatric patients with congestive heart failure; format: ADME; conditions: human
[6] = Plasma concentration in Sprague-Dawley rat at 1 mg/kg bolus dose with continuous infusion of 1 mg/kg per hour measured for 24 hrs; format: ADME, organism-based; conditions: iv
Mus musculus [7] = species: Mus musculus; assay: Antioxidant activity in 10% C57BL/6J mouse plasma assessed as inhibition of SIN-1-derived peroxynitrite-induced lipid oxidation by DPPP-based fluorescence assay; format: functional, cell-free
Mus musculus [8] = species: Mus musculus; assay: Antioxidant activity in 10% C57BL/6J mouse plasma assessed as inhibition of NaOCl-induced lipid oxidation by DPPP-based fluorescence assay; format: functional, cell-free
[9] = target: T1, Polyunsaturated fatty acid lipoxygenase ALOX15 (Mus musculus) (UniProt P39654); assay: (§1) Inhibition of 15-LOX-mediated lipid oxidation in 10% C57BL/6J mouse plasma; format: cell-free
T1 sequence (whole entry): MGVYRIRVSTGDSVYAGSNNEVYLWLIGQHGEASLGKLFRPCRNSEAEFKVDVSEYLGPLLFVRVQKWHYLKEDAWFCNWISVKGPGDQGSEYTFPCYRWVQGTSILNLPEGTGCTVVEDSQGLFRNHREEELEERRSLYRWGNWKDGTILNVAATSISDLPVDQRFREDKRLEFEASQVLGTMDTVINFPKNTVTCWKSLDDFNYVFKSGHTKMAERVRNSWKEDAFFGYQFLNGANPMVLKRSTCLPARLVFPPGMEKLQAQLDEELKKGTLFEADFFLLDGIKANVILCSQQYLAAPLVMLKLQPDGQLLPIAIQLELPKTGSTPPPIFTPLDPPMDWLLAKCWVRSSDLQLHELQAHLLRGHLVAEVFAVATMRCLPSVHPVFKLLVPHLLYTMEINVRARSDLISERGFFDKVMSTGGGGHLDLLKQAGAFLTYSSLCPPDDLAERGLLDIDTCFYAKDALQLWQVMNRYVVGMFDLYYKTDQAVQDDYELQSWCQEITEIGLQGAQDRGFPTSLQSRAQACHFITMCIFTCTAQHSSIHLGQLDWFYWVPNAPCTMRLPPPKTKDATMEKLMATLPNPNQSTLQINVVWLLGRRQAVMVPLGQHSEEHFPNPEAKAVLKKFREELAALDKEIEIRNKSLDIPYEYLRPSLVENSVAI

[10] = target: T2, Polyunsaturated fatty acid lipoxygenase ALOX15 (Mus musculus, UniProt P39654); assay: as §1; format: cell-free
T2 sequence (P39654 whole entry): T1 sequence (whole entry)

[11] = Plasma concentration in pediatric kawasaki patient at 10 to 25 mg/kg, po by HPLC method; format: ADME, organism-based; conditions: human, in vivo
[12] = Drug level in plasma (unknown origin); format: ADME, cell-free
[13] = Plasma concentration in human at 400 mg, po; format: ADME, cell-free
[14] = 1-octanol/water, read-out: logP

## Cc1c(C)c2c(c(C)c1O)CC[C@@](C)(CCC[C@H](C)CCC[C@H](C)CCCC(C)C)O2
[1]
  inhibition: Active
Mus musculus [2]
  inhibition: Active

## COc1ccccc1OCCNCC(O)COc1cccc2[nH]c3ccccc3c12 (centres undefined) [CARVEDILOL]
Mus musculus [3]
  inhibition: Dose-dependent effect
[4]; octanol/water
  logP: 1.04
[5]
  concentration: 0.5 µM

## O=c1c2ccccc2[se]n1-c1ccccc1 [EBSELEN]
Mus musculus [3]
  inhibition: Dose-dependent effect
[4]; [14]
  logP: 1.25
[6]
  concentration at 24 h: 5 to 20 µM

## CC1=NN(c2ccccc2)C(=O)C1 [EDARAVONE]
Mus musculus [2]
  inhibition: Active
Mus musculus [7]
  inhibition: Dose-dependent effect
Mus musculus [8]
  inhibition: Dose-dependent effect
[9]
  inhibition: Dose-dependent effect
[10]
  IC50: 34 µM
[4]; [14]
  logP: 0.86

## CC(=O)CCCCn1c(=O)c2c(ncn2C)n(C)c1=O [PENTOXIFYLLINE]
Mus musculus [3]
  inhibition: Dose-dependent effect
[4]; [14]
  logP: 0.19
[11]
  concentration: 5 to 20 µM

## CC(C)(Sc1cc(C(C)(C)C)c(O)c(C(C)(C)C)c1)Sc1cc(C(C)(C)C)c(O)c(C(C)(C)C)c1 [PROBUCOL]
Mus musculus [2]
  inhibition: Active
Mus musculus [7]
  inhibition: Dose-dependent effect
Mus musculus [8]
  inhibition: Dose-dependent effect
[4]; [14]
  logP: 1.02
[12]
  concentration: 30 µM

## Cc1c(C)c2c(c(C)c1O)CCC(C)(COc1ccc(CC3SC(=O)NC3=O)cc1)O2 (centres undefined) [TROGLITAZONE]
[1]
  inhibition: Active
Mus musculus [2]
  inhibition: Active
Mus musculus [3]
  inhibition: Dose-dependent effect
[9]
  inhibition: Dose-dependent effect
[10]
  IC50: 20 µM
[4]; octanol/water
  logP: 0.95
[13]
  concentration: 5 to 20 µM
